Experiment [1] has as its target T1, AChE (Electric-eel EC 3.1.1.7) (Electrophorus electricus, UniProt O42275).
T1 construct: purchased Sigma-Aldrich (St. Louis, MO, USA)
The experiment can be described thus: biochemical.

Experiment [2] addresses T2, BChE (horse serum EC 3.1.1.8) (Equus caballus, UniProt P81908).
T2 construct: purchased Sigma-Aldrich (St. Louis, MO, USA); host or cells: horse serum
The experiment in a line: biochemical.

The mark [3] stands for this setting: read-out: AChE ± SEM (IC50); Electric-eel AChE; SEM of five assays.
The mark [4] stands for this setting: read-out: BChE ± SEM (IC50), SEM of five assays.

Molecules are shown by their SMILES. Read-outs that look alike come from different tables or passages of the source.

What is called IC50 is the concentration needed to halve the response being measured.

T2 sequence (P81908 whole entry): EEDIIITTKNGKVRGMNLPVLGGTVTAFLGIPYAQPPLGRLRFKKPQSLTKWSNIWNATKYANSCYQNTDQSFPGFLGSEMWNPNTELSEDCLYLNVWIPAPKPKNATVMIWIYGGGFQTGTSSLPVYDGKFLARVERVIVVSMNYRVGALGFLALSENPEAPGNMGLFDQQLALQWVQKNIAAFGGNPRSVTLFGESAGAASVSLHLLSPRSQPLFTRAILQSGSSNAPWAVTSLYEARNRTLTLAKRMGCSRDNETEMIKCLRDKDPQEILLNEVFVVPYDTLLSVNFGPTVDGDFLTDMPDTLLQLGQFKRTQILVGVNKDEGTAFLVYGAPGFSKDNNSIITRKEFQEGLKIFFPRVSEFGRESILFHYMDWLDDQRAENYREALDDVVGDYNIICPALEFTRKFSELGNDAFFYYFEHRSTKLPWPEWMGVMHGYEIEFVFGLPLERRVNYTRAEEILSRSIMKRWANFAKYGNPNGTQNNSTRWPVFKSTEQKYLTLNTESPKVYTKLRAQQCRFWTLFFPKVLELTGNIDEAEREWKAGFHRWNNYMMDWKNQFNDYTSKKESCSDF
T1 sequence (O42275 24-633): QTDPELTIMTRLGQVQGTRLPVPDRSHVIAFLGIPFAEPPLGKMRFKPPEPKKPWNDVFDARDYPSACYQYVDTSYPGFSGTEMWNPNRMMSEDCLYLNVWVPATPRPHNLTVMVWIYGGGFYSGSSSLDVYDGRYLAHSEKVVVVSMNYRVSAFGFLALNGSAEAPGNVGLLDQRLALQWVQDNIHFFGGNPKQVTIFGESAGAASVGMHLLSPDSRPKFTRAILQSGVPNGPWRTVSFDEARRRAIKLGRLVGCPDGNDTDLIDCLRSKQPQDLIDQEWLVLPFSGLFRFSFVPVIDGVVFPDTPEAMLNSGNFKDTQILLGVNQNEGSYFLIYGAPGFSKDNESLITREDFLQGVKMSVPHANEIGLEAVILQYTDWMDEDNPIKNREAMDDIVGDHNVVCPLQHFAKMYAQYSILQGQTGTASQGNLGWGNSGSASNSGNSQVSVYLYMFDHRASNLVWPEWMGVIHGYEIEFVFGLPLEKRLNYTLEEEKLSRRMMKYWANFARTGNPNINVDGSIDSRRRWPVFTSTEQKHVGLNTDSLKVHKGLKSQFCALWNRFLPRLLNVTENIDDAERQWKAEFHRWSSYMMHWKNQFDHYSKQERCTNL

Consider `C=C1CC23CC(=O)C4C5(C)CC(O)C(O)C46C(C2C(=O)C1CC36O)N(C)C5` (stereo not drawn) [Compound 1, 9β-hydroxy hetidine], for which the IC50 was found to be 13.9 ± 0.35 µM in experiment [1] (Electric-eel AChE; SEM of five assays; read-out: AChE ± SEM (IC50)) and 28.2 ± 0.92 µM in experiment [2] (SEM of five assays, read-out: BChE ± SEM (IC50)). For the same molecule, the “Type of Inhibition” value in experiment [1] (stated for inhibition of AChE and BChE; listed as Chitralinine A) is “Competitive”.
`C=C1CC23CC(=O)C4C56C(C2C(=O)C1(O)C(O)C35O)N(C)C(O)[C@]4(C)CC(O)[C@@H]6O` (stereo partly drawn) [Compound 2, 9,11,12,19β- tetrahydoxy hetidine]: the IC50 is 11.64 ± 0.08 µM in experiment [1] (setting [3]) and 24.3 ± 0.33 µM in experiment [2] (setting [4]). In experiment [1] (stated for inhibition of AChE and BChE; listed as Chitralinine B), the “Type of Inhibition” value is reported as “Competitive”.
In the case of `C=C1CC23CC(=O)C4C5(C)CC(O)C(O)C46C(C2CC1(O)C(O)C36O)N(C)C5O` (stereo not drawn) [Compound 3, 1α, 2, 9,11,12,19β-hexahydoxy atisinone], the IC50 in experiment [1] (setting [3]) amounted to 12.1 ± 0.82 µM; in experiment [2] (setting [4]), 26.35 ± 0.06 µM. In addition, in experiment [1] (stated for inhibition of AChE and BChE; listed as Chitralinine-C), the “Type of Inhibition” value was “Competitive”.

For the origin of these results see article PMC9325274, “In Vitro and In Silico Investigation of Diterpenoid Alkaloids Isolated from Delphinium chitralense” (Molecules, 2022).
